# Results as given in patent US10966978B2, “Dose and regimen for HDM2-p53 interaction inhibitors” (Novartis AG, priority 2016, dated 2021).
# Like-named read-outs stand apart in the source and are kept apart here.
# System: patients with advanced TP53 wild-type (WT) leukemias
smiles,measurement,setting,value
"COc1ncc(-c2nc3c(n2C(C)C)[C@H](c2ccc(Cl)cc2)N(c2cc(Cl)cn(C)c2=O)C3=O)c(OC)n1 [HDM201, (S)-5-(5-Chloro-1-methyl-2-oxo-1,2-dihydro-pyridin-3-yl)-6-(4-chloro-phenyl)-2-(2,4-dimethoxy-pyrimidin-5-yl)-1-isopropyl-5,6-dihydro-1H-pyrrolo[3,4-d]imidazol-4-one]",AE: Nausea,"Regimen 2C N = 8, All Grades",3 (37.5) n (%)
same,AE: Neutropenia/Neutrophil Count Decreased,"Regimen 2C N = 8, All Grades",4 (50.0) n (%)
same,AE: Oedema,"Regimen 2C N = 8, All Grades",0 n (%)
same,AE: Oedema Peripheral,"Regimen 2C N = 8, All Grades",0 n (%)
same,AE: Oral Disorder,"Regimen 2C N = 8, All Grades",0 n (%)
same,AE: Pain In Extremity,"Regimen 2C N = 8, All Grades",0 n (%)
same,AE: Pancytopenia,"Regimen 2C N = 8, All Grades",1 (12.5) n (%)
same,AE: Pneumonia,"Regimen 2C N = 8, All Grades",0 n (%)
same,AE: Pollakiuria,"Regimen 2C N = 8, All Grades",0 n (%)
same,AE: Pyrexia,"Regimen 2C N = 8, All Grades",0 n (%)
same,AE: Rash,"Regimen 2C N = 8, All Grades",0 n (%)
same,AE: Rash Erythematous,"Regimen 2C N = 8, All Grades",0 n (%)
same,AE: Rash Papular,"Regimen 2C N = 8, All Grades",0 n (%)
same,AE: Rectal Haemorrhage,"Regimen 2C N = 8, All Grades",0 n (%)
same,AE: Renal Failure,"Regimen 2C N = 8, All Grades",1 (12.5) n (%)
same,AE: Skin Exfoliation,"Regimen 2C N = 8, All Grades",0 n (%)
same,AE: Stomatitis,"Regimen 2C N = 8, All Grades",1 (12.5) n (%)
same,AE: Subarachnoid Haemorrhage,"Regimen 2C N = 8, All Grades",0 n (%)
same,AE: Thrombocytopenia/Platelet Count Decreased,"Regimen 2C N = 8, All Grades",5 (62.5) n (%)
same,AE: Total,"Regimen 2C N = 8, All Grades",8 (100) n (%)
same,AE: Tumour Lysis Syndrome,"Regimen 2C N = 8, All Grades",1 (12.5) n (%)
same,AE: Vomiting,"Regimen 2C N = 8, All Grades",1 (12.5) n (%)
same,AE: Weight Decreased,"Regimen 2C N = 8, All Grades",0 n (%)
same,AE: White Blood Cell Count Decreased,"Regimen 2C N = 8, All Grades",2 (25.0) n (%)
same,AE: Abdominal Discomfort,"Regimen 2C N = 8, Grade 3/4",0 n (%)
same,AE: Abdominal Pain,"Regimen 2C N = 8, Grade 3/4",0 n (%)
same,AE: Abdominal Pain Upper,"Regimen 2C N = 8, Grade 3/4",0 n (%)
same,AE: Amylase Increased,"Regimen 2C N = 8, Grade 3/4",0 n (%)
same,AE: Anaemia,"Regimen 2C N = 8, Grade 3/4",3 (37.5) n (%)
same,AE: Arthralgia,"Regimen 2C N = 8, Grade 3/4",0 n (%)
same,AE: Asthenia,"Regimen 2C N = 8, Grade 3/4",0 n (%)
same,AE: Atrial Fibrillation,"Regimen 2C N = 8, Grade 3/4",0 n (%)
same,AE: Atypical Pneumonia,"Regimen 2C N = 8, Grade 3/4",0 n (%)
same,AE: Balanitis Candida,"Regimen 2C N = 8, Grade 3/4",0 n (%)
same,AE: Blood Alkaline Phosphatase Increased,"Regimen 2C N = 8, Grade 3/4",0 n (%)
same,AE: Blood Bilirubin Increased,"Regimen 2C N = 8, Grade 3/4",0 n (%)
same,AE: Blood Creatinine Increased,"Regimen 2C N = 8, Grade 3/4",1 (12.5) n (%)
same,AE: Blood Phosphorus Increased,"Regimen 2C N = 8, Grade 3/4",0 n (%)
same,AE: Blood Uric Acid Increased,"Regimen 2C N = 8, Grade 3/4",0 n (%)
same,AE: Bone Marrow Failure,"Regimen 2C N = 8, Grade 3/4",0 n (%)
same,AE: C-Reactive Protein Increased,"Regimen 2C N = 8, Grade 3/4",0 n (%)
same,AE: Cardiac Failure,"Regimen 2C N = 8, Grade 3/4",0 n (%)
same,AE: Cellulitis,"Regimen 2C N = 8, Grade 3/4",0 n (%)
same,AE: Chronic Graft Versus Host Disease,"Regimen 2C N = 8, Grade 3/4",0 n (%)
same,AE: Conjunctival Haemorrhage,"Regimen 2C N = 8, Grade 3/4",0 n (%)
same,AE: Constipation,"Regimen 2C N = 8, Grade 3/4",0 n (%)
same,AE: Cough,"Regimen 2C N = 8, Grade 3/4",0 n (%)
same,AE: Cystitis Viral,"Regimen 2C N = 8, Grade 3/4",0 n (%)
same,AE: Cytomegalovirus Infection,"Regimen 2C N = 8, Grade 3/4",0 n (%)
same,AE: Decreased Appetite,"Regimen 2C N = 8, Grade 3/4",0 n (%)
same,AE: Diarrhoea,"Regimen 2C N = 8, Grade 3/4",0 n (%)
same,AE: Dyspepsia,"Regimen 2C N = 8, Grade 3/4",0 n (%)
same,AE: Dyspnoea,"Regimen 2C N = 8, Grade 3/4",0 n (%)
same,AE: Epistaxis,"Regimen 2C N = 8, Grade 3/4",0 n (%)
same,AE: Fatigue,"Regimen 2C N = 8, Grade 3/4",0 n (%)
same,AE: Febrile Neutropenia,"Regimen 2C N = 8, Grade 3/4",3 (37.5) n (%)
same,AE: Gamma-Glutamyltransferase Increased,"Regimen 2C N = 8, Grade 3/4",0 n (%)
same,AE: General Physical Health Deterioration,"Regimen 2C N = 8, Grade 3/4",0 n (%)
same,AE: Gingival Bleeding,"Regimen 2C N = 8, Grade 3/4",0 n (%)
same,AE: Graft Versus Host Disease,"Regimen 2C N = 8, Grade 3/4",0 n (%)
same,AE: Haemoglobin Decreased,"Regimen 2C N = 8, Grade 3/4",0 n (%)
same,AE: Headache,"Regimen 2C N = 8, Grade 3/4",0 n (%)
same,AE: Hyperbilirubinaemia,"Regimen 2C N = 8, Grade 3/4",0 n (%)
same,AE: Hyperglycaemia,"Regimen 2C N = 8, Grade 3/4",0 n (%)
same,AE: Hyperkalaemia,"Regimen 2C N = 8, Grade 3/4",0 n (%)
same,AE: Hyperphosphataemia,"Regimen 2C N = 8, Grade 3/4",0 n (%)
same,AE: Hypoalbuminaemia,"Regimen 2C N = 8, Grade 3/4",0 n (%)
same,AE: Hypocalcaemia,"Regimen 2C N = 8, Grade 3/4",0 n (%)
same,AE: Hypokalaemia,"Regimen 2C N = 8, Grade 3/4",0 n (%)
same,AE: Hypomagnesaemia,"Regimen 2C N = 8, Grade 3/4",0 n (%)
same,AE: Hyponatraemia,"Regimen 2C N = 8, Grade 3/4",0 n (%)
same,AE: Hypophosphataemia,"Regimen 2C N = 8, Grade 3/4",0 n (%)
same,AE: Hypotension,"Regimen 2C N = 8, Grade 3/4",0 n (%)
same,AE: Infection,"Regimen 2C N = 8, Grade 3/4",0 n (%)
same,AE: Infective Glossitis,"Regimen 2C N = 8, Grade 3/4",0 n (%)
same,AE: Iron Overload,"Regimen 2C N = 8, Grade 3/4",0 n (%)
same,AE: Leukopenia,"Regimen 2C N = 8, Grade 3/4",0 n (%)
same,AE: Lip Oedema,"Regimen 2C N = 8, Grade 3/4",0 n (%)
same,AE: Lipase Increased,"Regimen 2C N = 8, Grade 3/4",0 n (%)
same,AE: Macular Oedema,"Regimen 2C N = 8, Grade 3/4",0 n (%)
same,AE: Malaise,"Regimen 2C N = 8, Grade 3/4",0 n (%)
same,AE: Mouth Haemorrhage,"Regimen 2C N = 8, Grade 3/4",0 n (%)
same,AE: Nausea,"Regimen 2C N = 8, Grade 3/4",0 n (%)
same,AE: Neutropenia/Neutrophil Count Decreased,"Regimen 2C N = 8, Grade 3/4",3 (37.5) n (%)
same,AE: Oedema,"Regimen 2C N = 8, Grade 3/4",0 n (%)
same,AE: Oedema Peripheral,"Regimen 2C N = 8, Grade 3/4",0 n (%)
same,AE: Oral Disorder,"Regimen 2C N = 8, Grade 3/4",0 n (%)
same,AE: Pain In Extremity,"Regimen 2C N = 8, Grade 3/4",0 n (%)
same,AE: Pancytopenia,"Regimen 2C N = 8, Grade 3/4",1 (12.5) n (%)
same,AE: Pneumonia,"Regimen 2C N = 8, Grade 3/4",0 n (%)
same,AE: Pollakiuria,"Regimen 2C N = 8, Grade 3/4",0 n (%)
same,AE: Pyrexia,"Regimen 2C N = 8, Grade 3/4",0 n (%)
same,AE: Rash,"Regimen 2C N = 8, Grade 3/4",0 n (%)
same,AE: Rash Erythematous,"Regimen 2C N = 8, Grade 3/4",0 n (%)
same,AE: Rash Papular,"Regimen 2C N = 8, Grade 3/4",0 n (%)
same,AE: Rectal Haemorrhage,"Regimen 2C N = 8, Grade 3/4",0 n (%)
same,AE: Renal Failure,"Regimen 2C N = 8, Grade 3/4",1 (12.5) n (%)
same,AE: Skin Exfoliation,"Regimen 2C N = 8, Grade 3/4",0 n (%)
same,AE: Stomatitis,"Regimen 2C N = 8, Grade 3/4",0 n (%)
same,AE: Subarachnoid Haemorrhage,"Regimen 2C N = 8, Grade 3/4",0 n (%)
same,AE: Thrombocytopenia/Platelet Count Decreased,"Regimen 2C N = 8, Grade 3/4",5 (62.5) n (%)
same,AE: Total,"Regimen 2C N = 8, Grade 3/4",5 (62.5) n (%)
same,AE: Tumour Lysis Syndrome,"Regimen 2C N = 8, Grade 3/4",1 (12.5) n (%)
same,AE: Vomiting,"Regimen 2C N = 8, Grade 3/4",0 n (%)
same,AE: Weight Decreased,"Regimen 2C N = 8, Grade 3/4",0 n (%)
same,AE: White Blood Cell Count Decreased,"Regimen 2C N = 8, Grade 3/4",2 (25.0) n (%)
